No end group written: not given here.
What was measured:
[1] = molecular target: T1, peripheral CCK receptors (pancreas) (Rattus norvegicus, UniProt P30551); experiment: peripheral CCK receptor binding affinity on rat pancreas homogenate (inhibition of 3[H]-CCK-8 binding); design: species or system rat (male Wistar); details: 0.3 nM 3[H]-CCK-8, 90 min, 25° C., pH 7.4, calculated from IC50 by Cheng-Prusoff; for Ki: read-out: In vitro binding to peripheral CCK receptors (pancreas) pKi values (converted)
T1 construct: Whole pancreas glands from male Wistar rats with a body weight of 150-300 g; from tissue; host or cells: whole pancreas glands of male Wistar rats, washed homogenate
T1 sequence (P30551 1-444): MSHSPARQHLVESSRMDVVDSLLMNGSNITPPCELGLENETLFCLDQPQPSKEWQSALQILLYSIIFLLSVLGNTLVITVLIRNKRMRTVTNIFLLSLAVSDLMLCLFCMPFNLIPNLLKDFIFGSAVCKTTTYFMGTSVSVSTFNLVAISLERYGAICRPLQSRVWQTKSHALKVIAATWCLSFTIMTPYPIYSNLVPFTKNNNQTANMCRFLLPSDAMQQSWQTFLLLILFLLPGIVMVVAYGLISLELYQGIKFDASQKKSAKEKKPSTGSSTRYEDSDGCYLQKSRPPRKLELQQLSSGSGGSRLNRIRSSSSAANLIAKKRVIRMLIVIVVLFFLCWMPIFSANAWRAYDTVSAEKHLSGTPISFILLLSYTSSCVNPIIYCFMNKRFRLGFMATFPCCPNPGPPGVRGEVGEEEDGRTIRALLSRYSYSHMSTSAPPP
Description: The affinity of the compounds of formula I for peripheral CCK receptors was measured in vitro on rat pancreas homogenate. The inhibition of the binding of the physiologically relevant octopeptide CCK-8 to peripheral CCK receptors by the test substances was determined.
The receptor binding studies were carried out by a modification of the method of van Dijk et al. (J. Neuroscience 4 (1984), 1021-1033), using soya bean trypsin inhibitor (=SBTI) as protease inhibitor. ^3 [H]-CCK-8, code TRK 775, from Amersham Int., having a specific activity of 60-90 Ci/mmol, was used as tritium-labelled CCK-8.
Whole pancreas glands from male Wistar rats with a body weight of 150-300 g, which had been sacrificed by decapitation, were freed of fatty tissue and homogenized for 15 seconds in a 50-fold volume of an ice-cold test buffer solution (10 mmol 2-[4-(2-hydroxyethyl)-piperazin-1-yl]-ethanesulfonic acid (=HEPES), 130 mmol sodium chloride, 5 mmol magnesium chloride, 0.02% bacitracins, 0.01% SBTI, pH 7.4) with a Kinematica Polytron type homogenizer. The homogenates were then centrifuged at 48,000 g for 10 minutes. This washing method was repeated. After the last centrifugation, the residue which was obtained each time in the form of a pellet was suspended in a 550-fold volume of the test buffer solution and immediately used for the measurement.
For the binding test, 500 μl of the tissue homogenate were incubated with 50 μl of test buffer solution or 50 μl of a solution of the compound to be investigated and with 50 μl of a ^3 [H]-CCK-8 solution (final concentration 0.3 nM). The non-specific binding was assumed to be 0.1 μmol CCK-8. The incubation lasted 90 minutes at 25° C. All the compounds were measured 3 times at each of several concentrations.
Aqueous solutions were employed as test substance solutions and were prepared by appropriate dilution of 60×10^-4 molar aqueous stock solutions. Test substances which are sparingly soluble in water were first dissolved in 96% ethanol, and this solution was diluted with sufficient water for the ethanol concentration not to exceed 1.6% by volume in the solution to be tested.
Bound and free ^3 [H]-CCK-8 were separated by filtration through glass fiber filters. The filters were washed twice with 3 ml of HEPES solution each time and then placed in the scintillation solution (SAVE scintillation solution from Packard) in the dark overnight and counted in a Packard TriCarb 1500™liquid scintillation counter. The IC50 of the respective test substance was determined to be that concentration which caused a 50% inhibition of the specific binding of tritiated CCK-8 to the receptors. From this, the corresponding pKi value was calculated using the Cheng-Prusoff equation. […]

[2] = system: CCK-induced disturbance of stomach emptying; experiment: effect of test substances on CCK-induced disturbances of emptying of the stomach (charcoal transport into duodenum); assay type: in vivo, mouse (female NMRI)
Description: Doses of CCK lead to substantial blockade of the transpyloric transport of chyme from the stomach into the duodenum. The ability of the test substances to eliminate this blocking effect of CCK was investigated.
Female NMRI mice having body weights of 20-25 g were used in groups of ten animals each. […] A control group received only the Tylose® solution or the solution containing the solubilizer polyethylene glycol in each case. 60 minutes later the animals were given a subcutaneous injection of 80 Ig/kg CCK-8. After a further 5 minutes the animals were each orally administered 0.3 ml of a charcoal suspension (5% charcoal in 2% strength Tylose solution). The mice were sacrificed 5 minutes later and subsequently dissected. They were examined to find whether charcoal suspension had advanced into the duodenum.
The percentage of animals in which the CCK effect was eliminated and charcoal suspension was found in the duodenum after administration of the test substances was determined.

[3] = system: CCK-induced gallbladder emptying; experiment: inhibitory effect of test substances on CCK-induced gallbladder emptying (gallbladder weight); assay type: in vivo, mouse (female NMRI); details: for % Inhibition of CCK-induced Gallbladder Emptying: CCK-8 i.p. 60 min later
Description: CCK causes a contraction of the muscles of the gallbladder and thus an emptying of the gallbladder. […] Intraperitoneal doses of 0.1 μg/kg CCK-8 may result in the weight of the gallbladders decreasing to about 1/10 of the original weight.
Female NMRI mice having a body weights of 20-25 g were used in groups of 10 animals each. After withdrawal of feed for 24 hours (drinking water ad libitum) the animals received an oral dose of the test substance suspended in a volume of 10 ml/kg of body weight of a 1% strength Tylose® solution (=methylcellulose) or in a volume of 10 ml/kg of body weight of a solubilizer solution which contained 5% glycerol, 87% polyethylene glycol 400, and 8% water. Two control groups each received only the Tylose® solution or the solution containing the solubilizer polyethylene glycol. One of the control groups and all the animals treated with test substance received 0.1 Ig/kg CCK-8 injected i.p. 60 minutes later.
The mice were sacrificed 5 minutes after the CCK-8 administration, and the gallbladders were excised and weighed.
The following Table C lists the percentage inhibition of the CCK-8 effect on gallbladder weights caused by the test substances.

[4] = determination of the minimum toxic dose; assay type: in vivo, mouse (male); details: mouse
Description: Male mice weighing 20-25 g were given maximum oral doses of 300 mg/kg of the test substance. The animals were observed carefully for three hours for symptoms of toxicity. In addition, all symptoms and deaths were recorded for a period of 24 hours after administration. Concomitant symptoms were likewise observed and recorded. If death or serious symptoms of toxicity were observed, further mice were given increasingly lower doses. The lowest dose which caused death or serious symptoms of toxicity is indicated in the following Table A as the minimum toxic dose.

[5] = dose 10 μmol/kg mouse oral, CCK-8 s.c. 60 min later
[6] = dose 0.1 μmol/kg mouse oral, CCK-8 s.c. 60 min later
[7] = dose 1.0 μmol/kg mouse oral, CCK-8 s.c. 60 min later
[8] = oral, lowest dose causing death or serious symptoms of toxicity, max 300 mg/kg, 24 h
[9] = dose 1.0* μmol/kg mouse oral, * = administered in solution containing solubilizer (PEG 400)

Row | Molecule | Ki [1] | Minimum toxic dose [4, 8] | other results
1 | COc1ccc2c(c1)N(C)C(=O)C(NC(=O)c1cc3cccc4c3n1CCC4)N=C2c1ccccc1 (single isomer, unassigned; (+)) [Example 2b, (+)-3-[(4H-pyrrolo[3,2,1-ij]-5,6-dihydroquinoline-2-carbonyl)-amino]-8-methoxy-1-methyl-2-oxo-5-phenyl-1H-2,3-dihydro-1,4-benzodiazepine] | 19.5 nM |  | % of Animals in which the CCK Effect was Eliminated [2, 5]: 70%; % Inhibition of CCK-induced Gallbladder Emptying ([3]; dose 46 μmol/kg mouse oral): 8.3%
2 | COc1ccc2c(c1)N(C)C(=O)C(NC(=O)c1cc3cccc4c3n1CCC4)N=C2c1ccccc1 (single isomer, unassigned; (-)) [Example 2a, (-)-3-[(4H-pyrrolo[3,2,1-ij]-5,6-dihydroquinoline-2-carbonyl)-amino]-8-methoxy-1-methyl-2-oxo-5-phenyl-1H-2,3-dihydro-1,4-benzodiazepine] | 0.257 nM |  | % of Animals in which the CCK Effect was Eliminated [2, 6]: 100%; % Inhibition of CCK-induced Gallbladder Emptying ([3]; dose 0.46 μmol/kg mouse oral): 16%
3 | CN1C(=O)C(NC(=O)c2cc3cccc4c3n2CCC4)N=C(C2CCCCC2)c2ccccc21 (stereo not shown) [Example 4, 3-[(4H-pyrrolo[3,2,1-ij]-5,6-dihydroquinoline-2-carbonyl)-amino]-1-methyl-2-oxo-5-cyclohexyl-1H-2,3-dihydro-1,4-benzodiazepine] | 2.51 nM |  | % of Animals in which the CCK Effect was Eliminated [2, 7]: 45%; Minimum toxic dose ([4]; in vivo, 1440 min): > 300 mg/kg
4 | CN1C(=O)C(NC(=O)c2cc3cc(F)cc4c3n2CCC4)N=C(c2ccccc2)c2ccccc21 (stereo not shown) [Example 5, 3-[(8-fluoro-4H-pyrrolo[3,2,1-ij]-5,6-dihydroquinoline-2-carbonyl)-amino]-2-oxo-1-methyl-5-phenyl-1H-2,3-dihydro-1,4-benzodiazepine] | 1.45 nM | > 300 mg/kg | % of Animals in which the CCK Effect was Eliminated [2, 5]: 75%
5 | Cc1ccc2c(c1)C(c1cccs1)=NC(NC(=O)c1cc3cccc4c3n1CCC4)C(=O)N2C (stereo not shown) [Example 8, 3-[(4H-Pyrrolo[3,2,1-ij]-5,6-dihydroquinoline-2-carbonyl)-amino]-1,7-dimethyl-2-oxo-5-(2-thienyl)-1H-2,3-dihydro-1,4-benzodiazepine] | 9.12 nM |  | 
6 | Cc1ccc2c(c1)C(c1ccccc1F)=NC(NC(=O)c1cc3cccc4c3n1CCC4)C(=O)N2C (stereo not shown) [Example 10] |  | 300 mg/kg | In vitro binding to peripheral CCK receptors (pancreas) pKi values [1]: 8.75; % of Animals in which the CCK Effect was Eliminated [2, 6]: 40%
7 | CN1C(=O)C(NC(=O)c2cc3cccc4c3n2CCC4)N=C(c2ccc(F)cc2F)c2ccccc21 (stereo not shown) [Example 11] | 2.4 nM | 300 mg/kg | 
8 | COc1ccc2c(c1)N(C)C(=O)C(NC(=O)c1cc3cccc4c3n1CCC4)N=C2c1c(F)cccc1F (stereo not shown) [Example 13] | 1 nM | > 300 mg/kg | % of Animals in which the CCK Effect was Eliminated [2, 5]: 83%; % of Animals in which the CCK Effect was Eliminated [2, 9]: 100%
9 | COc1ccc2c(c1)N(C)C(=O)C(NC(=O)c1cc3cccc4c3n1CCC4)N=C2c1c(F)cccc1OCCC(C)C (stereo not shown) [Example 17] | 10 nM |  | % of Animals in which the CCK Effect was Eliminated [2, 9]: 50%
10 | Cc1ccc2c(c1)C(c1ccccc1)=NC(NC(=O)c1cc3cccc4c3n1CCC4)C(=O)N2C (stereo not shown) [Example 18] | 1.17 nM | > 300 mg/kg | 
11 | CN1C(=O)C(NC(=O)c2cc3cccc4c3n2CCC4)N=C(c2ccccc2F)c2ccccc21 (stereo not shown) [Example 22] | 0.912 nM | > 300 mg/kg | 
12 | O=C(NC1N=C(c2ccccc2)c2ccccc2N(CC2CC2)C1=O)c1cc2cccc3c2n1CCC3 (stereo not shown) [Example 23] | 10 nM | > 300 mg/kg | 
13 | CC(C)N1C(=O)C(NC(=O)c2cc3cccc4c3n2CCC4)N=C(c2ccccc2)c2ccccc21 (stereo not shown) [Example 25] | 24 nM | > 300 mg/kg | 
14 | CN1C(=O)C(NC(=O)c2cc3cc(F)cc4c3n2CCC4)N=C(c2ccccc2)c2cc(Cl)ccc21 (stereo not shown) [Example 26] | 6.17 nM |  | 
15 | Cc1ccc2c(c1)C(c1ccc(Cl)c(Cl)c1)=NC(NC(=O)c1cc3cccc4c3n1CCC4)C(=O)N2C (stereo not shown) [Example 27] |  |  | % of Animals in which the CCK Effect was Eliminated [2, 7]: 40%
16 | Cc1ccc(C2=NC(NC(=O)c3cc4cccc5c4n3CCC5)C(=O)N(C)c3ccccc32)cc1 (stereo not shown) [Example 30] | 2.34 nM | 300 mg/kg | 
17 | CN1C(=O)C(NC(=O)c2cc3cccc4c3n2CCO4)N=C(c2ccccc2)c2ccccc21 (stereo not shown) [Example 37] | 0.646 nM |  | 
18 | CN1C(=O)C(NC(=O)c2cc3cccc4c3n2CCS4)N=C(c2ccccc2)c2ccccc21 (stereo not shown) [Example 38] | 0.977 nM |  | 
19 | CCK-8: the octapeptide CCK-8 is the smallest unit with the complete spectrum of CCK effects (DYMGWMDF; ends and bridges not checked; UniProt P06307 96-103, looked up) [reference compound] |  |  | animals with traces of charcoal suspension in the duodenum ([2]; control animals which received a dose of CCK (80 Ig/kg CCK-8 subcutaneous), no test substance): not more than 5%; weight of the gallbladders decreasing to fraction of the original weight ([3]; intraperitoneal 0.1 μg/kg CCK-8): about 1/10
